# What was measured:
# Type in all cases: in vivo
# [1] = test system: ducksalad (Heteranthera limosa); assay: Test B flooded paddy test; conditions: 250 g ai/ha, Flood; visual rating on scale of 0 to 100 where 0 is no effect and 100 is complete control; 13 to 15 d after treatment
# Experimental: (§1) Plant species in the flooded paddy test selected from rice (Oryza sativa), sedge, umbrella (small-flower umbrella sedge, Cyperus difformis), ducksalad (Heteranthera limosa), and barnyardgrass (Echinochloa crus-galli) were grown to the 2-leaf stage for testing. At time of treatment, test pots were flooded to 3 cm above the soil surface, treated by application of test compounds directly to the paddy water, and then maintained at that water depth for the duration of the test. Treated plants and controls were maintained in a greenhouse for 13 to 15 d, after which time all species were compared to controls and visually evaluated. Plant response ratings, summarized in Table B, are based on a scale of 0 to 100 where 0 is no effect and 100 is complete control. A dash (-) response means no test result.
# [2] = test system: barnyardgrass (Echinochloa crus-galli); assay: Test B flooded paddy test; conditions: 250 g ai/ha, Flood; visual rating on scale of 0 to 100 where 0 is no effect and 100 is complete control; 13 to 15 d after treatment
# Experimental: as §1
# [3] = test system: sedge, umbrella (small-flower umbrella sedge, Cyperus difformis); assay: Test B flooded paddy test; conditions: 250 g ai/ha, Flood; visual rating on scale of 0 to 100 where 0 is no effect and 100 is complete control; 13 to 15 d after treatment
# Experimental: as §1
# rice (Oryza sativa) = assay: Test B flooded paddy test; conditions: 250 g ai/ha, Flood; visual rating on scale of 0 to 100 where 0 is no effect and 100 is complete control; 13 to 15 d after treatment
# Experimental: as §1
# [4] = test system: blackgrass (Alopecurus myosuroides); assay: Test A greenhouse herbicide test, postemergence
# Procedure, shortened: (§2)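 Plants grown in loam soil/sand blend pots were treated postemergence at 2 to 10 cm height, one- to two-leaf stage, with formulated test chemicals. After approximately 10 d in a greenhouse, injury was rated visually against untreated controls on a 0 to 100 scale (0 no effect, 100 complete control).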
# [5] = test system: galium (catchweed bedstraw, Galium aparine); assay: Test A greenhouse herbicide test, postemergence
# Procedure, shortened: as §2
# kochia (Kochia scoparia) = assay: Test A greenhouse herbicide test, pre- and postemergence
# Source text: (§3) Seeds of plant species selected from barnyardgrass (Echinochloa crus-galli), kochia (Kochia scoparia), ragweed (common ragweed, Ambrosia elatior), ryegrass, Italian (Italian ryegrass, Lolium multiflorum), crabgrass, large (large crabgrass, Digitaria sanguinalis), foxtail, giant (giant foxtail, Setaria faberii), momingglory (Ipomoea spp.), pigweed (Amaranthus retroflexus), velvetleaf (Abutilon theophrasti), wheat (Triticum aestivum), and corn (Zea mays) were planted into a blend of loam soil and sand and treated preemergence with a directed soil spray using test chemicals formulated in a non-phytotoxic solvent mixture which included a surfactant.
# (§4) At the same time, plants selected from these crop and weed species and also blackgrass (Alopecurus myosuroides), and galium (catchweed bedstraw, Galium aparine) were planted in pots containing the same blend of loam soil and sand and treated with postemergence applications of test chemicals formulated in the same manner. Plants ranged in height from 2 to 10 cm and were in the one- to two-leaf stage for the postemergence treatment. Treated plants and untreated controls were maintained in a greenhouse for approximately 10 d, after which time all treated plants were compared to untreated controls and visually evaluated for injury. Plant response ratings, summarized in Table A, are based on a 0 to 100 scale where 0 is no effect and 100 is complete control. A dash (-) response means no test result.
# [6] = test system: foxtail, giant (giant foxtail, Setaria faberii); assay: as above
# Source text: as §3, §4
# corn (Zea mays) = assay: as above; conditions: Postemergence
# Source text: as §3, §4
# [7] = test system: pigweed (Amaranthus retroflexus); assay: as above
# Source text: as §3, §4
# [8] = test system: ryegrass, Italian (Italian ryegrass, Lolium multiflorum); assay: as above
# Source text: as §3, §4
# [9] = test system: wheat (Triticum aestivum); assay: as above; conditions: Postemergence
# Source text: as §3, §4
# [10] = test system: barnyardgrass (Echinochloa crus-galli); assay: as above
# Source text: as §3, §4
# [11] = test system: ragweed (common ragweed, Ambrosia elatior); assay: as above
# Source text: as §3, §4
# [12] = 125 g ai/ha, 0 to 100 scale where 0 is no effect and 100 is complete control
# [13] = 500 g ai/ha, 0 to 100 scale, 0 is no effect, 100 is complete control
# [14] = Postemergence, 125 g ai/ha, 0 to 100 scale where 0 is no effect and 100 is complete control
# [15] = Postemergence, 500 g ai/ha, 0 to 100 scale, 0 is no effect, 100 is complete control
# [16] = Preemergence, 125 g ai/ha, 0 to 100 scale where 0 is no effect and 100 is complete control
# [17] = Preemergence, 500 g ai/ha, 0 to 100 scale, 0 no effect, 100 complete control
# [18] = 500 g ai/ha, visual rating after approx. 10 d, 0 to 100 scale (0 no effect, 100 complete control)
# [19] = Postemergence, 500 g ai/ha, visual rating after approx. 10 d, 0 to 100 scale (0 no effect, 100 complete control)
# [20] = Preemergence, 500 g ai/ha, 0 to 100 scale where 0 is no effect and 100 is complete control
structure (smiles),measurement,setting,value
Cc1sc2ccccc2c1-c1c(O)cnn(C)c1=O [Compound 48],"Plant response rating, Ducksalad",[1],0
same,"Plant response rating, Barnyardgrass",[2],0
same,"Plant response rating, Sedge, Umbrella",[3],0
same,"Plant response rating, Rice",rice (Oryza sativa),0
same,"Plant response rating, Blackgrass",[4]; [12],0
same,Blackgrass plant response rating,[4]; [13],30
same,"Plant response rating, Galium",[5]; [12],90
same,Galium plant response rating,[5]; [13],90
same,"Plant response rating, Kochia",kochia (Kochia scoparia); [14],70
same,Kochia plant response rating,kochia (Kochia scoparia); [15],80
same,Kochia plant response rating,kochia (Kochia scoparia); [16],0
same,"Plant response rating, Kochia",kochia (Kochia scoparia); [17],10
same,"Plant response rating, Foxtail, Giant",[6]; [14],50
same,"Foxtail, Giant plant response rating",[6]; [15],60
same,"Foxtail, Giant plant response rating",[6]; [16],0
same,"Plant response rating, Foxtail, Giant",[6]; [17],10
same,"Plant response rating, Corn",corn (Zea mays); [12],0
same,Corn plant response rating,corn (Zea mays); [13],0
same,"Plant response rating, Pigweed",[7]; [14],60
same,Pigweed plant response rating,[7]; [15],70
same,Pigweed plant response rating,[7]; [16],30
same,"Plant response rating, Pigweed",[7]; [17],30
same,"Plant response rating, Ryegrass, Italian",[8]; [14],50
same,"Ryegrass, Italian plant response rating",[8]; [15],60
same,"Ryegrass, Italian plant response rating",[8]; [16],20
same,"Plant response rating, Ryegrass, Italian",[8]; [17],60
same,"Plant response rating, Wheat",[9]; [12],0
same,Wheat plant response rating,[9]; [13],0
same,"Plant response rating, Barnyardgrass",[10]; [14],10
same,Barnyardgrass plant response rating,[10]; [15],50
same,Barnyardgrass plant response rating,[10]; [16],0
same,"Plant response rating, Barnyardgrass",[10]; [17],0
same,"Plant response rating, Ragweed",[11]; [14],0
same,Ragweed plant response rating,[11]; [15],20
same,Ragweed plant response rating,[11]; [16],10
same,"Plant response rating, Ragweed",[11]; [17],60
Cc1sc2ccc(C(F)(F)F)cc2c1-c1c(O)c(Cl)nn(C)c1=O [Compound 140],"Plant response rating, Blackgrass",[4]; [12],30
same,"Plant response rating, Blackgrass",[4]; [18],50
same,"Plant response rating, Galium",[5]; [12],70
same,"Plant response rating, Galium",[5]; [18],90
same,"Plant response rating, Kochia",kochia (Kochia scoparia); [14],30
same,"Plant response rating, Kochia",kochia (Kochia scoparia); [19],70
same,Kochia plant response rating,kochia (Kochia scoparia); [16],0
same,"Plant response rating, Kochia",kochia (Kochia scoparia); [20],30
same,"Plant response rating, Foxtail, Giant",[6]; [14],40
same,"Plant response rating, Foxtail, Giant",[6]; [19],90
same,"Foxtail, Giant plant response rating",[6]; [16],50
same,"Plant response rating, Foxtail, Giant",[6]; [20],80
same,"Plant response rating, Corn",corn (Zea mays); [12],20
same,"Plant response rating, Corn",corn (Zea mays); [18],30
same,"Plant response rating, Pigweed",[7]; [14],70
same,"Plant response rating, Pigweed",[7]; [19],90
same,Pigweed plant response rating,[7]; [16],50
same,"Plant response rating, Pigweed",[7]; [20],100
same,"Plant response rating, Ryegrass, Italian",[8]; [14],70
same,"Plant response rating, Ryegrass, Italian",[8]; [19],100
same,"Plant response rating, Ryegrass, Italian",[8]; [20],90
same,"Plant response rating, Wheat",[9]; [12],20
same,"Plant response rating, Wheat",[9]; [18],70
same,"Plant response rating, Barnyardgrass",[10]; [14],50
same,"Plant response rating, Barnyardgrass",[10]; [19],90
same,Barnyardgrass plant response rating,[10]; [16],50
same,"Plant response rating, Barnyardgrass",[10]; [20],70
same,"Plant response rating, Ragweed",[11]; [14],90
same,"Plant response rating, Ragweed",[11]; [19],100
same,"Plant response rating, Ragweed",[11]; [20],90
Cc1ccc2ccccc2c1-c1c(OS(C)(=O)=O)cnn(C)c1=O [Compound 142],"Plant response rating, Blackgrass",[4]; [12],10
same,"Plant response rating, Blackgrass",[4]; [18],20
same,"Plant response rating, Galium",[5]; [12],70
same,"Plant response rating, Galium",[5]; [18],80
same,"Plant response rating, Kochia",kochia (Kochia scoparia); [14],0
same,"Plant response rating, Kochia",kochia (Kochia scoparia); [19],20
same,Kochia plant response rating,kochia (Kochia scoparia); [16],0
same,"Plant response rating, Kochia",kochia (Kochia scoparia); [20],0
same,"Plant response rating, Foxtail, Giant",[6]; [14],10
same,"Plant response rating, Foxtail, Giant",[6]; [19],20
same,"Foxtail, Giant plant response rating",[6]; [16],10
same,"Plant response rating, Foxtail, Giant",[6]; [20],60
same,"Plant response rating, Corn",corn (Zea mays); [12],0
same,"Plant response rating, Corn",corn (Zea mays); [18],0
same,"Plant response rating, Pigweed",[7]; [14],20
same,"Plant response rating, Pigweed",[7]; [19],50
same,Pigweed plant response rating,[7]; [16],60
same,"Plant response rating, Pigweed",[7]; [20],50
same,"Plant response rating, Ryegrass, Italian",[8]; [14],80
same,"Plant response rating, Ryegrass, Italian",[8]; [19],90
same,"Plant response rating, Ryegrass, Italian",[8]; [20],80
same,"Plant response rating, Wheat",[9]; [12],0
same,"Plant response rating, Wheat",[9]; [18],0
same,"Plant response rating, Barnyardgrass",[10]; [14],10
same,"Plant response rating, Barnyardgrass",[10]; [19],20
same,Barnyardgrass plant response rating,[10]; [16],10
same,"Plant response rating, Barnyardgrass",[10]; [20],70
same,"Plant response rating, Ragweed",[11]; [14],0
same,"Plant response rating, Ragweed",[11]; [19],20
same,"Plant response rating, Ragweed",[11]; [20],40
